Results published in patent publication EP3501280A1, “COMPOSITION COMPRISING AN AGROCHEMICALLY ACTIVE COMPOUND AND A CARBONATE” (priority 2017, dated 2019).
≈ marks a conversion by molar mass, not a printed value.

Experiments:
[1] = Determination of boiling point of carbonates; format: physicochemical; conditions: calculated from boiling point measured at a pressure below 101.3 kPa
Description: (§1) Determination of boiling point: measured at a pressure below 101.3 kPa; the boiling point measured at this pressure below 101.3 kPa were used to calculate the boiling point at 101.3 kPa by using the following tool: http://www.calctool.org/CALC/chem/substance/boiling. Determination of dynamic viscosity: By using Anton Paar viscosimeter SVM 3000/G2, viscosity was measured at 23°C. Said Anton Paar viscosimeter is a rotational viskosimeter and works according the Stabinger measurement principle.

[2] = Determination of dynamic viscosity (Anton Paar viscosimeter SVM 3000/G2); format: physicochemical; conditions: dynamic viscosity at 23°C
Description: as §1

[3] = Solubility of carbonates in water (OECD guideline 105, flask method); format: physicochemical; conditions: for Solubility of carbonates in water: OECD 105 flask method
Text: The water solubility of a substance is the saturation mass concentration of the substance in water at a given temperature. Determination according to OECD guideline for testing of chemicals 105, flask method.

[4] = at 20°C; cited from earlier work
[5] = system: Blumeria graminis f. sp. hordei (type A6); assay: Protective leaf-segment test on barley; format: in vivo; conditions: barley (HORVX), 2 WAT; for Effect [%]: infestation relative to no carbonate
Description: (§2) Plants tested: barley (HORVX); cultivation of plants: three plants per pot were cultivated in fine Frustorfer soil for three weeks.
The plants were treated with the following SC formulation: fungicidal formulation - 25% by weight azoxystrobin, 16.7% by weight Tamol® NN 2901, 10% by weight propyleneglycol, 48.3% by weight water. The effect of a carbonate (numbering according to Table 1 above) was tested by adding the respective carbonate to the […] formulation prior to treatment of the plants.
10 hours after treatment with fungicidal formulation, beginning from the stalk, 7 cm leaf segments have been cut; the most recent and the second most recent leaf of a plant were used. 15 pieces of said 7 cm leaf segments were collected and put onto benzimidazole-agar (0.5% agar, 40 ppm benzimidazole added after treatment by autoclave).
The leaf segments on the agar plates were inoculated with fresh conidia of Blumeria graminis f. sp. hordei (type A6).
The agar plates (10x10cm) were then incubated at 18°C during night time and 23°C during day time at 60-70% air moisture in an incubator for a certain time.
The determination of the mildew infestation was carried out by determining the surface per leaf within 5 cm leaf length infested with mildew. WAT (weeks after treatment) were chosen according to constant impairment observed.

[6] = system: Blumeria graminis f. sp. hordei (type A6); assay: Curative leaf-segment test on barley; format: in vivo; conditions: barley (HORVX), 2 WAT; for Effect [%]: pustules relative to no carbonate
Description: as §2
The plants were inoculated with fresh conidia of Blumeria graminis f. sp. hordei (type A6). 24-48h after inoculation with mildew, the plants were treated with the following liquid formulation: fungicidal formulation OPUS® SC 125 (BASF SE; comprising epoxiconazole). The effect of a carbonate (numbering according to Table 1 above) was tested by adding the respective carbonate to the liquid formulation prior to treatment of the plants.
10 hours after treatment with fungicidal formulation, beginning from the stalk, 7 cm leaf segments were cut; the most recent leaf and the second most recent leaf of a plant were used. 15 pieces of said 7 cm leaf segments were collected and put onto benzimidazole-agar (0.5% agar, 40 ppm benzimidazole added after treatment by autoclave. The agar plates (10x10cm) were then incubated at 18°C during night time and at 23°C during day time at 60-70% air moisture in an incubator for a certain time.
The determination of the mildew infestation was carried out by mildew pustules per leaf within 5 cm leaf length. WAT (weeks after treatment) were chosen according to constant impairment observed. Table Ex6b: Dosing of agrochemically active compound with and without component (b) in curative leaf-segment test on barley (HORVX) and the infestation of mildew after WAT

[7] = azoxystrobin 10 g/ha SC formulation, amount of carbonate 0 g/ha
[8] = epoxiconazole 10 g/ha (OPUS® SC 125) plus carbonate No 1 at 50 g/ha
[9] = azoxystrobin 10 g/ha SC formulation plus carbonate No 1 at 50 g/ha
[10] = epoxiconazole 10 g/ha (OPUS® SC 125), amount of carbonate 0 g/ha

CCCC1COC(=O)O1 (stereo not shown) [compound 2]
Boiling point °C at 101.3 kPa [1]: >180 °C | Viscosity mPa.s at 23°C [2]: 4.2 mPa.s | Solubility of carbonates in water [3]: 21 g carbonate per l water

CC(O)(Cn1cncn1)c1ccc(Oc2ccc(Cl)cc2)cc1C(F)(F)F (stereo not shown) [pesticide 7, mefentrifluconazole]
Solubility in H2O (data from literature*) [4]: 0.81 mg/l at 20 °C

CC(=O)OCC1COC(=O)O1 (stereo not shown) [compound 3]
Boiling point °C at 101.3 kPa [1]: >180 °C | Viscosity mPa.s at 23°C [2]: 59.1 mPa.s | Solubility of carbonates in water [3]: 72 g carbonate per l water

Cn1cc(C(=O)Nc2ccccc2-c2cc(F)c(F)c(F)c2)c(C(F)F)n1 [pesticide 8, fluxapyroxad]
Solubility in H2O (data from literature*) [4]: 3.88 mg/l at 20 °C

CC(Cc1ccc(C(C)(C)C)cc1)CN1C[C@@H](C)O[C@@H](C)C1 (stereo partly shown) [pesticide 9, fenpropimorph]
Solubility in H2O (data from literature*) [4]: 4.3mg/l at 20 °C

CO/C=C(/C(=O)OC)c1ccccc1Oc1cc(Oc2ccccc2C#N)ncn1 [pesticide 2, azoxystrobin, reference compound]
% leaf surface infested with mildew - average value of 15 leaves [5, 7]: 38.7% | Effect [%] [5, 7]: 100% | Solubility in H2O (data from literature*) [4]: 6.7 mg/l at 20 °C

CCC(=O)OCC1COC(=O)O1 (stereo not shown) [compound 1]
Mildew pustules - average value of 15 leaves [6, 8]: 34.7 | Effect [%] [6, 8]: 84% | % leaf surface infested with mildew - average value of 15 leaves [5, 9]: 28% | Effect [%] [5, 9]: 72.35% | Boiling point °C at 101.3 kPa [1]: >180 °C | Viscosity mPa.s at 23°C [2]: 32 mPa.s | Solubility of carbonates in water [3]: 54 g carbonate per l water

CC1COC(=O)O1 (stereo not shown) [propylene carbonate, reference compound]
water solubility ([3]; comparison value for propylene carbonate, source not stated): 175 g/L (≈ 1710 mM)

COC(=O)N(OC)c1ccccc1COc1ccn(-c2ccc(Cl)cc2)n1 [pesticide 3, pyraclostrobin]
Solubility in H2O (data from literature*) [4]: 1.9 mg/l at 20 °C

Fc1ccc([C@]2(Cn3cncn3)O[C@H]2c2ccccc2Cl)cc1 (racemic) [pesticide 4, epoxiconazole, reference compound]
Mildew pustules - average value of 15 leaves [6, 10]: 41.3 | Effect [%] [6, 10]: 100% | Solubility in H2O (data from literature*) [4]: 8.42 mg/l at 20 °C

CC(C)(C)C(O)(CCc1ccc(Cl)cc1)Cn1cncn1 (stereo not shown) [pesticide 5, tebuconazole]
Solubility in H2O (data from literature*) [4]: 29 mg/l at 20 °C
